# In US9796719B2, “Compounds and pharmaceutical compositions thereof for the treatment of inflammatory disorders” (GALAPAGOS NV, priority 2013, dated 2017):
# Target: hENPP2 (UniProtKB/SwissProt Sequence ref Q13822) (Homo sapiens (Human), UniProt Q13822)
# Assay: LPC hENPP2 assay (choline release, LPC as substrate)
# Type: biochemical
# Protocol: The principle of the assay consists in quantifying the released choline with an enzymatic method using choline oxidase and peroxidase. Choline oxydation by choline oxydase releases betaine and peroxide. The latter is quantified in presence of HRP that converts the peroxide detection agent TOOS and 4-aminoantipyrine into quinoneimine dye. The appearance of quinoneimine dye is measured spectrophotometrically at 555 nm and is proportional to the amount of choline released by ENPP2. Inhibition of ENPP2 will result in a decrease of the signal.
# The reaction is terminated and choline quantified by the addition of a 25 μL of a mixture containing 0.6 U/mL of choline oxidase, 0.6 U/mL of peroxydase, 1.8 mM TOOS, 1.2 mM amino-antipyrine, 20 mM EGTA (stop-developer solution) diluted in the buffer described above. […] is read on the Envision after an incubation of 30 min at room temperature (Excitation 555 nm, excitation light=70%).
row,IC50 [nM],Structure (SMILES)
1,0.01 to 100,"CCc1nc2ccc(N3CCC(N4CCC(CO)CC4)C3)nn2c1N(C)c1nc(-c2ccc(F)cc2)c(C#N)s1 (stereo not drawn) [Cpd 179, 2-((2-ethyl-6-(3-(4-(hydroxymethyl)piperidin-1-yl)pyrrolidin-1-yl)imidazo[1,2-b]pyridazin-3-yl)(methyl)amino)-4-(4-fluorophenyl) thiazole-5-carbonitrile]"
2,> 1000,"CCc1nc2cnc(C3=CCN(S(C)(=O)=O)CC3)cn2c1N(C)c1nc(-c2ccc(F)cc2)c(C#N)s1 [Cpd 20, 2-((2-ethyl-6-(1-(methylsulfonyl)-1,2,3,6-tetrahydropyridin-4-yl)imidazo[1,2-a]pyrazin-3-yl)(methyl)amino)-4-(4-fluorophenyl) thiazole-5-carbonitrile]"
3,> 1000,"CCc1nc2ccc(N3CCC(C(=O)NCCO)C3)nn2c1N(C)c1nc(-c2ccc(F)cc2)cs1 (stereo not drawn) [Cpd 140, 1-(2-ethyl-3-((4-(4-fluorophenyl)thiazol-2-yl)(methyl)amino)imidazo[1,2-b]pyridazin-6-yl)-N-(2-hydroxyethyl) pyrrolidine-3-carboxamide]"
4,> 1000,"CCc1nc2ccc(N3CCC4(CCCCC4)CC3)nn2c1N(C)c1nc(-c2ccc(F)cc2)cs1 [Cpd 77, N-(2-ethyl-6-(3-azaspiro[5.5]undecan-3-yl)imidazo[1,2-b]pyridazin-3-yl)-4-(4-fluorophenyl)-N-methylthiazol-2-amine]"
5,> 1000,"CCc1nc2ccc(N3CC(CO)C3)nn2c1N(C)c1nc(-c2ccc(F)cc2)cs1 [Cpd 153, (1-(2-ethyl-3-((4-(4-fluorophenyl)thiazol-2-yl)(methyl)amino)imidazo[1,2-b]pyridazin-6-yl)azetidin-3-yl)methanol]"
6,> 1000,"CCc1nc2ccc(N3CCN(C4COC4)CC3)nn2c1N(C)c1nc(-c2ccc(F)cc2)cs1 [Compound 38, N-(2-ethyl-6-(4-(oxetan-3-yl)piperazin-1-yl)imidazo[1,2-b]pyridazin-3-yl)-4-(4-fluorophenyl)-N-methylthiazol-2-amine]"
7,100 to 500,"CCc1nc2ccc(C3CCN(CC(=O)NC)CC3)nn2c1N(C)c1nc(-c2ccc(F)cc2C#N)cs1 [Cpd 209, 2-(4-(3-((4-(2-cyano-4-fluorophenyl)thiazol-2-yl)(methyl)amino)-2-ethylimidazo[1,2-b]pyridazin-6-yl)piperidin-1-yl)-N-methylacetamide]"
8,100 to 500,"CCc1nc2ccc(N3CCC4(CN(C)C(=O)O4)C3)nn2c1N(C)c1nc(-c2ccc(F)cc2)c(C#N)s1 (stereo not drawn) [Cpd 164, 2-((2-ethyl-6-(3-methyl-2-oxo-1-oxa-3,7-diazaspiro[4.4]nonan-7-yl)imidazo[1,2-b]pyridazin-3-yl)(methyl)amino)-4-(4-fluorophenyl) thiazole-5-carbonitrile]"
9,> 1000,"CCc1nc2ccc(N3CCN(C4CCOCC4)CC3)nn2c1N(C)c1nc(-c2ccc(F)cc2)cs1 [Cpd 39, N-(2-ethyl-6-(4-(tetrahydro-2H-pyran-4-yl)piperazin-1-yl)imidazo[1,2-b]pyridazin-3-yl)-4-(4-fluorophenyl)-N-methylthiazol-2-amine]"
10,500 to 1000,"CCc1nc2ccc(N3CCN(CC4CNC(=O)O4)CC3)nn2c1N(C)c1nc(-c2ccc(F)cc2)c(CO)s1 (stereo not drawn) [Cpd 41, 5-((4-(2-ethyl-3-((4-(4-fluorophenyl)-5-(hydroxymethyl)thiazol-2-yl)(methyl)amino)imidazo[1,2-b]pyridazin-6-yl)piperazin-1-yl)methyl) oxazolidin-2-one]"
11,> 1000,"CCc1nc2ccc(N3CCC(C(=O)OC)C3)nn2c1N(C)c1nc(-c2ccc(F)cc2)cs1 (stereo not drawn) [Cpd 139, 1-(2-Ethyl-3-{[4-(4-fluoro-phenyl)-thiazol-2-yl]-methyl-amino}-imidazo[1,2-b]pyridazin-6-yl)-pyrrolidine-3-carboxylic acid methyl ester]"
12,> 1000,"CCc1nc2cnc(N3CCN(CC(=O)N4CC(F)(F)C4)CC3)cn2c1N(C)c1nc(-c2ccc(F)cc2)c(C#N)s1 [Cpd 3, 2-((6-(4-(2-(3,3-difluoroazetidin-1-yl)-2-oxoethyl)piperazin-1-yl)-2-ethylimidazo[1,2-a]pyrazin-3-yl)(methyl)amino)-4-(4-fluorophenyl) thiazole-5-carbonitrile]"
13,> 1000,"CCc1nc2ccc(N3CCC(NC(=O)C4(C)COC4)CC3)nn2c1N(C)c1nc(-c2ccc(F)cc2)cs1 [Cpd 86, N-(1-(2-ethyl-3-((4-(4-fluorophenyl)thiazol-2-yl)(methyl)amino)imidazo[1,2-b]pyridazin-6-yl)piperidin-4-yl)-3-methyloxetane-3-carboxamide]"
14,0.01 to 100,"CCc1nc2ccc(N3CC(N)C3)nn2c1N(C)c1nc(-c2ccc(F)cc2)c(C#N)s1 [Cpd 188, 2-((6-(3-aminoazetidin-1-yl)-2-ethylimidazo[1,2-b]pyridazin-3-yl)(methyl)amino)-4-(4-fluorophenyl) thiazole-5-carbonitrile]"
15,500 to 1000,"CCc1nc2ccc(N3CCC(N4CCNC(=O)C4)C3)nn2c1N(C)c1nc(-c2ccc(F)cc2)cs1 (stereo not drawn) [Cpd 146, 4-(1-(2-ethyl-3-((4-(4-fluorophenyl)thiazol-2-yl)(methyl)amino)imidazo[1,2-b]pyridazin-6-yl)pyrrolidin-3-yl)piperazin-2-one]"
16,> 1000,"CCc1nc2ccc(N3CCC(NC(=O)CO)CC3)nn2c1N(C)c1nc(-c2ccc(F)cc2)cs1 [Cpd 85, N-(1-(2-ethyl-3-((4-(4-fluorophenyl)thiazol-2-yl)(methyl)amino)imidazo[1,2-b]pyridazin-6-yl)piperidin-4-yl)-2-hydroxyacetamide]"
17,> 1000,"CCc1nc2ccc(N3CCCC(N4CCC(O)CC4)C3)nn2c1N(C)c1nc(-c2ccc(F)cc2)cs1 (stereo not drawn) [Cpd 112, l′-(2-ethyl-3-((4-(4-fluorophenyl)thiazol-2-yl)(methyl)amino)imidazo[1,2-b]pyridazin-6-yl)-1,3′-bipiperidin-4-ol]"
18,0.01 to 100,"CCc1nc2ccc(N3CCC(O)(CNC(C)=O)C3)nn2c1N(C)c1nc(-c2ccc(F)cc2)c(C#N)s1 (stereo not drawn) [Cpd 169, N-((1-(3-((5-cyano-4-(4-fluorophenyl)thiazol-2-yl)(methyl)amino)-2-ethylimidazo[1,2-b]pyridazin-6-yl)-3-hydroxypyrrolidin-3-yl)methyl)acetamide]"
19,> 1000,"CCc1nc2ccc(N3CCC4(CCOCC4)C3)nn2c1N(C)c1nc(-c2ccc(F)cc2)cs1 [Cpd 117, N-(2-ethyl-6-(8-oxa-2-azaspiro[4.5]decan-2-yl)imidazo[1,2-b]pyridazin-3-yl)-4-(4-fluorophenyl)-N-methylthiazol-2-amine]"
20,500 to 1000,"CCc1nc2ccc(N3CCC(N4C[C@@H](C)O[C@@H](C)C4)C3)nn2c1N(C)c1nc(-c2ccc(F)cc2)c(C#N)s1 (stereo partly drawn) [Compound 178, 2-((6-(3-((2S,6R)-2,6-dimethylmorpholino)pyrrolidin-1-yl)-2-ethylimidazo[1,2-b]pyridazin-3-yl)(methyl)amino)-4-(4-fluorophenyl)thiazole-5-carbonitrile]"
21,> 1000,"CCc1nc2ccc(N3CCCC4(CN(C)C(=O)O4)C3)nn2c1N(C)c1nc(-c2ccc(F)cc2)c(C#N)s1 (stereo not drawn) [Cpd 163, 2-((2-ethyl-6-(3-methyl-2-oxo-1-oxa-3,7-diazaspiro[4.5]decan-7-yl)imidazo [1,2-b]pyridazin-3-yl)(methyl)amino)-4-(4-fluorophenyl) thiazole-5-carbonitrile]"
22,> 1000,"CCc1nc2ccc(N3CCC(NC(=O)C4CCN(C(=O)OC(C)(C)C)CC4)CC3)nn2c1N(C)c1nc(-c2ccc(F)cc2)cs1 [Cpd 87, tert-butyl 4-(1-(2-ethyl-3-((4-(4-fluorophenyl)thiazol-2-yl)(methyl)amino)imidazo[1,2-b]pyridazin-6-yl)piperidin-4-ylcarbamoyl) piperidine-1-carboxylate]"
23,100 to 500,"CCc1nc2ccc(N3CCC4(CN(C)C(=O)O4)C3)nn2c1N(C)c1nc(-c2ccc(F)cc2)cs1 (stereo not drawn) [Cpd 119, 7-(2-ethyl-3-((4-(4-fluorophenyl)thiazol-2-yl)(methyl)amino)imidazo[1,2-b]pyridazin-6-yl)-3-methyl-1-oxa-3,7-diazaspiro[4.4] nonan-2-one]"
24,> 1000,"CCc1nc2ccc(N3C[C@H]4C[C@H]3CN4C(C)=O)nn2c1N(C)c1nc(-c2ccc(F)cc2)cs1 [Cpd 75, 1-((1R,4S)-5-(2-ethyl-3-((4-(4-fluorophenyl)thiazol-2-yl)(methyl)amino)imidazo[1,2-b]pyridazin-6-yl)-2,5-diazabicyclo[2.2.1]heptan-2-yl)ethanone]"
25,> 1000,"CCc1nc2ccc(N3CCN(CC(=O)N4C(C)CCC4C)CC3)nn2c1N(C)c1nc(-c2ccc(F)cc2)cs1 (stereo not drawn) [Cpd 32, 1-(2,5-dimethylpyrrolidin-l-yl)-2-(4-(2-ethyl-3-((4-(4-fluorophenyl)thiazol-2-yl)(methyl)amino)imidazo[1,2-b]pyridazin-6-yl)piperazin-1-yl)ethanone]"
26,> 1000,"CCc1nc2ccc(N3CCC(NC(=O)CO)C3)nn2c1N(C)c1nc(-c2ccc(F)cc2)cs1 (stereo not drawn) [Compound 136, N-(1-(2-ethyl-3-((4-(4-fluorophenyl)thiazol-2-yl)(methyl)amino)imidazo[1,2-b]pyridazin-6-yl)pyrrolidin-3-yl)-2-hydroxyacetamide]"
27,> 1000,"CCc1nc2cnc(N3CCN(CC(=O)N4CC(O)C4)CC3)cn2c1N(C)c1nccc(-c2ccc(F)cc2C#N)n1 [Cpd 18, 2-(2-((2-ethyl-6-(4-(2-(3-hydroxyazetidin-1-yl)-2-oxoethyl)piperazin-1-yl)imidazo[1,2-a]pyrazin-3-yl)(methyl)amino)pyrimidin-4-yl)-5-fluorobenzonitrile]"
